# Results published in patent publication US8921363B2, “Derivatives of 1 H-isoindol-3-amine, 1 H-iso-aza-indol-3amine, 3,4-dihydroisoquinolin-1-amine, and 1,4-dihydroisoquinolin-3-amine as beta-secretase inhibitors” (Amgen Inc., priority 2010, dated 2014).
# Tests used:
# [1] = test system: Aβ40 in conditioned medium of cells expressing amyloid precursor protein; assay: In vitro BACE cell-based assay (HEK cell assay, Aβ40 sandwich ELISA); conditions: Homo sapiens, HEK293; average IC50; Aβ40 after 24 h incubation
# BACE1 = BACE1 (Homo sapiens, UniProt P56817); assay: In vitro enzymatic BACE FRET assay; type: biochemical
# Sequence of BACE1 (P56817 46-501): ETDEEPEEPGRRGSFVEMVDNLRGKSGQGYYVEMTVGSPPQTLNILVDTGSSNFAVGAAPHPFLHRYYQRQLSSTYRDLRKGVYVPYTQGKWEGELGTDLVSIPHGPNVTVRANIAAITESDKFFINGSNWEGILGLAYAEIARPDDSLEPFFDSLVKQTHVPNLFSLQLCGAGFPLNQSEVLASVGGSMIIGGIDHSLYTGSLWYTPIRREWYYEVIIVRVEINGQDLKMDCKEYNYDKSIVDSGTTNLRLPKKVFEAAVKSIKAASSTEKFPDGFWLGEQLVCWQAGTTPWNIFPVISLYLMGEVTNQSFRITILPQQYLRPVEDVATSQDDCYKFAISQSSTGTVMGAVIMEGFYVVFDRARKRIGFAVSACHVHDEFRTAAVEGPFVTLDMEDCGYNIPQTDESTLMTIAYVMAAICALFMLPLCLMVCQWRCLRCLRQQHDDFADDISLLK
# Method: In Vitro Enzymatic BACE FRET (fluorescence resonance energy transfer) Assay (Enzyme Assay data in the Example Table I)
# The assay buffer used in this screen is 0.05 M acetate, pH 4.2, 10% DMSO final, 100 uM genapol (which is a nonionic detergent, below its Critical Micelle Concentration). […] This assay is effectively started by the addition of FRET substrate (50 nM) and the combination is incubated for one hour. The FRET assay is terminated with by addition of Tris buffer, which raises the pH to neutrality, and the fluorescence is determined. The FRET substrate is a peptide with commercially available fluorophore and quencher, on opposite sides of the BACE cleavage site. Proteolytic cleavage of the FRET substrate releases quenching of fluorescence (excitation […] and […]).
# amyloid beta peptide = assay: In vivo inhibition of beta-secretase (CSF and brain abeta reduction); conditions: rat, PD dose of 10 mg/kg, after 4 hrs
# From the text: Several animal models, including mouse, rat, dog, and monkey, may be used to screen for inhibition of beta-secretase activity in vivo following administration of a test compound sample. Animals used in this invention can be wild type, transgenic, or gene knockout animals. For example, the Tg2576 mouse model, prepared and conducted as described in Hsiao et al., 1996, Science 274, 99-102, and other non-transgenic or gene knockout animals are useful to analyze in vivo inhibition of Amyloid beta peptide (Abeta) production in the presence of inhibitory test compounds. Generally, 2 to 18 month old Tg2576 mice, gene knockout mice or non-transgenic animals are administered test compounds formulated in vehicles, such as cyclodextran, phosphate buffers, hydroxypropyl methylcellulose or other suitable vehicles. One to twenty-four hours following the administration of compound, animals are sacrificed, and brains as well as cerebrospinal fluid (CSF) and plasma are removed for analysis of A-beta levels and drug or test compound concentrations (Dovey et al., 2001, Journal of Neurochemistry, 76,173-181) Beginning at time 0, animals are administered by oral gavage, or other means of delivery such as intravenous injection, an inhibitory test compound of up to 100 mg/kg in a standard, conventional formulation, such as 2% hydroxypropyl methylcellulose, 1% Tween80. A separate group of animals receive 2% hydroxypropyl methylcellulose, 1% Tween80 alone, containing no test compound, and serve as a vehicle-control group. At the end of the test period, animals are sacrificed and brain tissues, plasma or cerebrospinal fluid are collected. Brains are either homogenized in 10 volumes (w/v) of 0.2% diethylamine (DEA) in 50 mM NaCl (Best et al., 2005, Journal of Pharmacology and Experimental Therapeutics, 313, 902-908), or in 10 volumes of 0.5% TritonX-100 in Tris-buffered saline (pH at about 7.6). Homogenates are centrifuged at 355,000 g, 4° C. for 30 minutes. CSF or brain supernatants are then analyzed for the presence of A-beta peptide by specific sandwich ELISA assays based on ECL (Electrochemiluminescence) technology. For example, rat Abeta40 is measured using biotinylated-4G8 (Signet) as a capture antibody and Fab40 (an in-house antibody specific to the C-terminal of Abeta40) as a detection antibody. For example, 4 hours after administration of 30 mg/kg oral dose of the test compound in 2% hydroxypropyl methylcellulose, 1% Tween80 (pH2.2) to 200 g male Sprague Dawley rats, amyloid beta peptide levels are measured for reduction by X % and Y % in cerebrospinal fluid and brain, respectively, when compared to the levels measured in the vehicle-treated or control mice.
# Actual vehicles used: Oral: 2% HPMC, 1% Tween80, pH 2.2 […]
SMILES,IC50 [1],IC50 (BACE1),CSF abeta reduction (amyloid beta peptide),brain abeta reduction (amyloid beta peptide)
"NC1=N[C@]2(c3cc(-c4cccnc4F)ccc3Oc3c2cc(C2=CCCOC2)nc3F)c2ccccc21 (single isomer, unassigned) [Example 7-B]",5 nM,0.5 nM,7%,10%
"NC1=NC2(c3cc(Br)ccc3Oc3cnc(Cl)cc32)c2ccncc21 (stereo not shown) [Example 16, 7-bromo-3-chlorospiro[chromeno[2,3-c]pyridine-5,1′-pyrrolo[3,4-c]pyridin]-3′-amine]",> 10000 nM,9090 nM,,
"NC1=N[C@]2(c3cc(-c4cccnc4F)ccc3Oc3c2cc(C2=CCCOC2)nc3F)c2cccnc21 [Example 17-F, (S)-3-(5,6-dihydro-2H-pyran-3-yl)-1-fluoro-7-(2-fluoropyridin-3-yl)spiro[chromeno[2,3-c]pyridine-5,5′-pyrrolo[3,4-b]pyridin]-7′-amine]",3 nM,0.7 nM,,
"NC1=N[C@]2(c3cc(-c4cccnc4F)ccc3Oc3c2cc(N2CCOCC2)nc3F)c2cccnc21 [Example 17-G, (S)-1-fluoro-7-(2-fluoropyridin-3-yl)-3-morpholinospiro[chromeno[2,3-c]pyridine-5,5′-pyrrolo[3,4-b]pyridin]-7′-amine]",2 nM,1 nM,,
"NC1=NC2(c3cc(Br)ccc3Oc3c2cc(Cl)nc3F)c2cccnc21 (stereo not shown) [Example 17c, 7-bromo-3-chloro-1-fluorospiro[chromeno[2,3-c]pyridine-5,5′-pyrrolo[3,4-b]pyridin]-7′-amine]",> 10000 nM,> 10000 nM,,
"NC1=NC2(c3cc(-c4cccnc4F)ccc3Oc3c2cc(Cl)nc3F)c2cccnc21 (stereo not shown) [Example 17d, 3-chloro-1-fluoro-7-(2-fluoropyridin-3-yl)spiro[chromeno[2,3-c]pyridine-5,5′-pyrrolo[3,4-b]pyridin]-7′-amine 2,2,2-trifluoroacetate]",4370 nM,88 nM,,
"NC1=N[C@@]2(c3cc(-c4cccnc4F)ccc3Oc3c2cc(Cl)nc3F)c2cccnc21 [Example 17d-1, (R)-3-chloro-1-fluoro-7-(2-fluoropyridin-3-yl)spiro[chromeno[2,3-c]pyridine-5,5′-pyrrolo[3,4-b]pyridin]-7′-amine]",> 10000 nM,> 10000 nM,,
"NC1=N[C@]2(c3cc(-c4cccnc4F)ccc3Oc3c2cc(Cl)nc3F)c2cccnc21 [Example 17d-2, (S)-3-chloro-1-fluoro-7-(2-fluoropyridin-3-yl)spiro[chromeno[2,3-c]pyridine-5,5′-pyrrolo[3,4-b]pyridin]-7′-amine]",1570 nM,16 nM,,
"NC1=N[C@]2(c3cc(-c4cccnc4F)ccc3Oc3c2cc(-c2ccnc(F)c2)nc3F)c2cccnc21 [Example 17e, (S)-1-fluoro-7-(2-fluoropyridin-3-yl)-3-(2-fluoropyridin-4-yl)spiro[chromeno[2,3-c]pyridine-5,5′-pyrrolo[3,4-b]pyridin]-7′-amine]",7 nM,0.7 nM,41%,28%
"NC1=NC2(c3ccccc3O1)c1cc(-c3cncnc3)ccc1Oc1cnc(-c3ccnc(F)c3)cc12 (stereo not shown) [Example 20, 3′-(2-fluoropyridin-4-yl)-7′-(pyrimidin-5-yl)spiro[benzo[c][1,3]oxazine-4,5-chromeno[2,3-c]pyridin]-2-amine]",106 nM,2.7 nM,,
"NC1=NC2(c3cc(-c4cccnc4F)ccc3Oc3cnc(-c4ccnc(F)c4)cc32)c2ncccc2O1 (stereo not shown) [Example 22, 7-(2-fluoropyridin-3-yl)-3-(2-fluoropyridin-4-yl)spiro[chromeno[2,3-c]pyridine-5,4′-pyrido[2,3-e][1,3]oxazin]-2′-amine]",805 nM,9.9 nM,,
"NC1=NC2(c3ccccc3O1)c1cc(-c3cccnc3)ccc1Oc1cnc(-c3ccnc(F)c3)cc12 (stereo not shown) [Example 23, 3′-(2-fluoropyridin-4-yl)-7′-(pyridin-3-yl)spiro[benzo[e][1,3]oxazine-4,5′-chromeno[2,3-c]pyridin]-2-amine]",98 nM,2.9 nM,,
